# Results taken from ChEMBL document CHEMBL5506074, “Discovery and Optimization of Tetrahydroisoquinoline Derivatives To Enhance Lysosome Biogenesis as Preclinical Candidates for the Treatment of Alzheimer's Disease” (J Med Chem, 2024).
# The source made the active and inactive calls. The rule behind the calls is not given here.
# Tests used:
# [1] = system: HeLa; test: Upregulation of OPTN mRNA expression in TFEB knockout human HeLa cells at 10 uM incubated for 24 hrs by qRT-PCR analysis; format: functional, cell-based
# [2] = Induction of TFEB nuclear translocation in human HeLa cells expressing EGFP at 10 uM measured at 3 hrs by fluorescence microscopic analysis; format: functional
# [3] = molecular target: Cyclin-dependent kinase 9 (Homo sapiens) (UniProt P50750); test: Inhibition of CDK9 in human SH-SY5Y cells assessed as decrease in Rpb1 phosphorylation at 10 uM incubated for 6 hrs by immunoblotting analysis; format: cell-based
# Chain of Cyclin-dependent kinase 9 (Homo sapiens) (P50750 whole entry): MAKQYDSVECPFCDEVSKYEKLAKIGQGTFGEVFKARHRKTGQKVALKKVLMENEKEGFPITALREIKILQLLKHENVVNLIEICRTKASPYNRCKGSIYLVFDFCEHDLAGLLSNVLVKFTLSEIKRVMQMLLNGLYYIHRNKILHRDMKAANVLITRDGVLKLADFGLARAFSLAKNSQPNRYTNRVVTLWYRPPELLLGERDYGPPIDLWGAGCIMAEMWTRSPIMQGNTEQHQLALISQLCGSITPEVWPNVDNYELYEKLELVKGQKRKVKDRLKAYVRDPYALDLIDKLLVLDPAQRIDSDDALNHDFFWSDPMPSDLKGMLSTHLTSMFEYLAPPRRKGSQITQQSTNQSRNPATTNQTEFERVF
# [4] = molecular target: T1, Sodium-dependent dopamine transporter (Homo sapiens, UniProt Q01959); test: Displacement of [3H] dopamine from DAT in HEK293 cells incubated for 1 hr by topcount plate reader analysis; format: cell-based
# T1 sequence (Q01959 whole entry): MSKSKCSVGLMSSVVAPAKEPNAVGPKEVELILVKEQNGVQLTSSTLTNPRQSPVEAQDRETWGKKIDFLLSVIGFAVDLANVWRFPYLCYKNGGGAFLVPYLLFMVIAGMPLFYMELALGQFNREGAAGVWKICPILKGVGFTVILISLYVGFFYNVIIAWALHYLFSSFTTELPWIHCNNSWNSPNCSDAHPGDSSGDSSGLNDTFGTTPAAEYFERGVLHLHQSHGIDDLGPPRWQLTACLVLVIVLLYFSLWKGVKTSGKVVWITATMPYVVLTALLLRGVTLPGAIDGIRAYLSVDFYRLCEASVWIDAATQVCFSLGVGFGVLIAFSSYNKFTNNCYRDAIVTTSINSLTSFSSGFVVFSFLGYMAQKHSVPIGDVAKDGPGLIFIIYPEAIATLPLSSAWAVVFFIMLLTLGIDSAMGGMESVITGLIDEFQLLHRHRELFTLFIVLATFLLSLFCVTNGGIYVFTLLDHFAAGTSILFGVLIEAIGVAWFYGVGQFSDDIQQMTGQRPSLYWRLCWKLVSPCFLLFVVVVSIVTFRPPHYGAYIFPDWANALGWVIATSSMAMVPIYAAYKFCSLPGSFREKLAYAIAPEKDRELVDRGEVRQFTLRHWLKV
# [5] = system: HeLa; test: Induction of lysosome biogenesis in human HeLa cells assessed as increase in number of acidified lysosomes at 10 uM incubated for 24 hrs by LysiTracker red staining based flow cytometry analysis; format: functional, cell-based
# [6] = Cmax in ICR mouse at 20 mg/kg, po measured upto 24 hrs by LC-MS/MS analysis; format: ADME, organism-based; conditions: in vivo
# [7] = system: Mus musculus; test: Anti-alzheimer activity against APP/PS1 mouse model assessed as upregulation of CTSB mRNA expression in brain at 10 mg/kg, ip administered for 30 days; format: functional, organism-based; conditions: time 30.0 day
# [8] = Tmax in ICR mouse at 10 mg/kg, ip measured upto 24 hrs by LC-MS/MS analysis; format: ADME, organism-based; conditions: in vivo
# [9] = molecular target: T1, Sodium-dependent dopamine transporter; test: Displacement of [3H] dopamine from DAT in HEK293 cells assessed as inhibition constant incubated for 1 hr by topcount plate reader analysis; format: cell-based
# [10] = Oral bioavailability in ICR mouse at 20 mg/kg measured upto 24 hrs by LC-MS/MS analysis; format: ADME, organism-based; conditions: in vivo
# [11] = system: HeLa; test: Upregulation of UVRAG mRNA expression in human HeLa cells at 10 uM incubated for 24 hrs by qRT-PCR analysis; format: functional, cell-based
# [12] = Volume of distribution at steady state in ICR mouse measured upto 24 hrs by LC-MS/MS analysis; format: ADME; conditions: in vivo, read-out: Vdss
# [13] = Acute toxicity in C57BL/6J mouse assessed as kidney damage at 50 mg/kg, ip measured upto 14 days H and E staining based analysis; format: organism-based; conditions: in vivo, 336 h, time < 14 day
# [14] = system: HeLa; test: Induction of cell cycle arrest in human HeLa cells assessed as effect on CDK4 level at 10 uM incubated for 12 hrs by qRT-PCR analysis; format: functional, cell-based
# [15] = system: HeLa; test: Upregulation of Atg16L1 mRNA expression in human HeLa cells at 10 uM incubated for 24 hrs by qRT-PCR analysis; format: functional, cell-based
# [16] = system: SH-SY5Y; test: Cytotoxicity against human SH-SY5Y cells assessed as effect on cell viability at 10 uM incubated for 24 hrs; format: functional, cell-based
# [17] = Ratio of drug concentration in ICR mouse brain to plasma at 5 mg/kg, iv measured upto 24 hrs by LC-MS/MS analysis; format: ADME, organism-based; conditions: brain and plasma, read-out: BPR
# [18] = system: HeLa; test: Upregulation of LAMP1 mRNA expression in TFEB knockout human HeLa cells at 10 uM incubated for 24 hrs by qRT-PCR analysis; format: functional, cell-based
# [19] = system: HeLa; test: Upregulation of GLA mRNA expression in human HeLa cells at 10 uM incubated for 24 hrs by qRT-PCR analysis; format: functional, cell-based
# [20] = system: HeLa; test: Upregulation of ATG2A mRNA expression in TFEB knockout human HeLa cells at 10 uM incubated for 24 hrs by qRT-PCR analysis; format: functional, cell-based
# [21] = system: HeLa; test: Upregulation of LC3B mRNA expression in human HeLa cells at 10 uM incubated for 24 hrs by qRT-PCR analysis; format: functional, cell-based
# [22] = system: HeLa; test: Upregulation of […] mRNA expression in human HeLa cells at 10 uM incubated for 24 hrs by qRT-PCR analysis; format: functional, cell-based
# [23] = molecular target: T1, Sodium-dependent dopamine transporter; test: Displacement of [3H] dopamine from DAT in HEK293 cells incubated for 15 mins by microbeta analysis; format: cell-based
# [24] = system: HeLa; test: Cytotoxicity against human HeLa cells assessed as effect on cell viability at 10 uM incubated for 24 hrs; format: functional, cell-based
# [25] = Induction of TFEB nuclear translocation in human HeLa cells expressing EGFP at 30 uM measured at 3 hrs by fluorescence microscopic analysis; format: functional
# [26] = Clearance in ICR mouse at 5 mg/kg, iv measured upto 24 hrs by LC-MS/MS analysis; format: ADME, organism-based; conditions: in vivo
# [27] = system: Mus musculus; test: Anti-alzheimer activity against APP/PS1 mouse model assessed as upregulation of CTSF mRNA expression in brain at 10 mg/kg, ip administered for 30 days; format: functional, organism-based; conditions: time 30.0 day
# [28] = AUC (0 to t) in ICR mouse at 5 mg/kg, iv measured upto 24 hrs by LC-MS/MS analysis; format: ADME, organism-based; conditions: in vivo
# [29] = Half life in ICR mouse at 20 mg/kg, po measured upto 24 hrs by LC-MS/MS analysis; format: ADME, organism-based; conditions: in vivo
# [30] = system: HeLa; test: Upregulation of HEXA mRNA expression in human HeLa cells at 10 uM incubated for 24 hrs by qRT-PCR analysis; format: functional, cell-based
# [31] = system: HeLa; test: Upregulation of CTSF mRNA expression in TFEB knockout human HeLa cells at 10 uM incubated for 24 hrs by qRT-PCR analysis; format: functional, cell-based
# [32] = Tmax in ICR mouse at 20 mg/kg, po measured upto 24 hrs by LC-MS/MS analysis; format: ADME, organism-based; conditions: in vivo
SMILES,Activity [1],Activity [2] [%],inhibition [3],Cmax [6] [ng/mL],Activity [7],Tmax [8] [min],Activity [11],Vd [12] [L/kg],Activity [13],Activity [14],Activity [15],Activity [16],Kp at 24 h [17],Activity [18],Activity [19],Activity [20],Activity [21],Activity [22],Activity [24],Activity [25] [%],other results
c1ccc2c(CCC3NCCc4cc5c(cc43)OCO5)c[nH]c2c1 (stereo not given),Active,44,Active,4030,Active,3,Active,4.51,Non-Toxic,inactive,Active,Active,2.8,Active,Active,Active,Active,Active,Active,97,IC50 [4]: 2150 nM; Activity [5]: Active; Ki [9]: 680 nM; bioavailability ([10]; ICR): 76.4%; IC50 [23]: 6340 nM; clearance [26]: 30.3 mL/min/kg; Activity [27]: Active; AUC(0-t) at 24 h ([28]; ICR): 3310 ng·h/mL; half-life [29]: 186 min; Activity [30]: Active; Activity [31]: Active; Tmax [32]: 34.8 min
Fc1ccc2[nH]cc(CCC3c4cc5c(cc4CCN3CC3CCOCC3)OCO5)c2c1 (stereo not given),Active,72,Active,9.49,Active,81,Active,36.8,Non-Toxic,inactive,Active,Active,6.9,Active,Active,Active,Active,Active,Active,94,"F ([10]; po, 20 mg/kg, 24 h): 6.73%; clearance [26]: 204 mL/min/kg; Activity [27]: Active; AUCt ([28]; iv, 5 mg/kg, 24 h): 409 ng·h/mL; half-life [29]: 142 min; Activity [30]: Active; Activity [31]: Active; Tmax [32]: 25.2 min"
